# Publication PMC6920875, “Dithiocarbamate as a Valuable Scaffold for the Inhibition of Metallo-β-Lactmases” (Biomolecules, 2019)
# Key:
# Assay type in all cases: biochemical
# NDM-1 [1] = biological target: T1, NDM-1 (Klebsiella pneumoniae, UniProt C7C422); test: Isothermal titration calorimetry (ITC) of MβL-catalysed substrate hydrolysis; conditions: 150 nM enzyme, 1 mM cefazolin, inhibitor 0-200 μM, 25 °C
# T1 construct: made in house; host or cells: E. coli BL21 (DE3), plasmid pET26b-NDM-1
# Protocol: (§1) Isothermal titration calorimetry (ITC) assays were performed on a Malvern MicroCal iTC 200 instrument (Malvern Instruments, Malvern, UK) at 25 °C, by a single injection mode. During ITC experiments the reference cell was filled with degassed water. The MβLs, substrates, and inhibitor DC1 were prepared with 50 mM Tris, pH 7.0. The concentration of MβLs used was in the range 100–200 nM, concentration of substrate was 1 mM, and concentrations of DC1 were varied between 0 and 200 µM. Before starting the measurement, the enzyme was pre-incubated with different concentrations of DC1 for 5 min, and then delivered into the sample cell (210 µL). The hydrolysis reaction in the absence of inhibitors was also determined as a control. The stirring rate of the syringe was set to 750 rpm. The system was equilibrated at the desired 25 °C. […] Heat flow was recorded as a function of time. Data were collected every 1 s until the signal reached the baseline and continued to be recorded for the length of time necessary to generate the final baseline.
# (§2) Isothermal titration calorimetry (ITC) was also employed, to identify the inhibition of the dithiocarbamates on MβLs and study their thermodynamic behaviour. […]
# L1 [2] = biological target: T2, L1 (Stenotrophomonas maltophilia, UniProt P52700); test: as above; conditions: 100 nM enzyme, 1 mM cefazolin, inhibitor 0-200 μM, 25 °C
# T2 construct: made in house; host or cells: E. coli BL21 (DE3), plasmid pET-26b-L1
# T2 sequence (P52700 34-290): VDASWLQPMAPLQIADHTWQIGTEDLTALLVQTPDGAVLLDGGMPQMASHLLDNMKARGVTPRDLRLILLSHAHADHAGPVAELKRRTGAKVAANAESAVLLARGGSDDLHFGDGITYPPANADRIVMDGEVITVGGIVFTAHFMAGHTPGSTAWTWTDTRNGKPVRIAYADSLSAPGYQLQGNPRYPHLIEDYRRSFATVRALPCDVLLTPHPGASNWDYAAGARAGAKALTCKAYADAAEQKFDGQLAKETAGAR
# Protocol: as §1, §2
# NDM-1 [3] = biological target: T1, NDM-1; test: Inhibitor reversibility, activity recovery after rapid 100-fold dilution; conditions: 1.3 μM enzyme, 10 min pre-incubation
# Protocol: (§3) It can be observed in Figure 4d–f that the Q value remains almost unchanged in the presence or absence of inhibitors, likely because the formation of the enzyme-inhibitor complex (EI), that slowed down substrate hydrolysis, was reversible. […] We assayed the binding reversibility of DC1 to MβLs by measuring the enzymatic activity recovery after a large, rapid dilution of the MβL-DC1 complex.
# (§4) Determination of inhibitor reversibility
# (§5) NDM-1, ImiS and L1 were incubated at a concentration of 1.3, 5.0 and 5.8 μM, which is 100-fold over the concentration required for the activity assay, with DC1 at a concentration of 1.5, 0.7 and […]
# (§6) After 10 minutes pre-incubation, the recovery of enzymatic activity was determined after rapid and large dilution (100-fold) with the reaction […]
# (§7) Figure S2. Recovery of NDM-1 (a), ImiS (b) and L1 (c) activity after rapid dilution of the enzyme-inhibitor complex. The curve in black refers to the control sample pre-incubated and diluted in the absence of inhibitor. Curves in red refer to MβLs pre-incubated with DC1. […]
# L1 [4] = biological target: T2, L1; test: as above; conditions: 5.8 μM enzyme, 25.3 μM inhibitor, 10 min pre-incubation
# Protocol: as §3, §4, §5, §6, §7
# NDM-1 [5] = biological target: T1, NDM-1; test: Inhibition kinetics, Lineweaver–Burk plots
# Protocol: (§8) The dithiocarbamates, MβLs and substrates samples were prepared with 30 mM Tris, pH 7.0. […] Enzymes and inhibitors were pre-incubated for 5 min before adding substrate. […] The IC50 values were nonlinearly fitted by plotting the average percentage inhibition against inhibitor concentration. The inhibition modes of DC1 to ImiS, NDM-1 and L1 were assayed by generating Lineweaver–Burk plots, and Ki values were obtained by fitting initial velocity versus substrate concentration at each inhibitor concentration, using SigmaPlot 12.0 (Systat Software Inc., San Jose, CA, USA).
# (§9) To further identify the inhibition mode of the DCs against MβLs, we performed inhibition kinetics of NDM-1, ImiS and L1 by DC1, at different concentrations, with different substrate concentrations. […] Enzyme and inhibitors were pre-incubated for 5 min before starting the kinetic assays. All experimental hydrolytic rates of substrates were determined in triplicate. The inhibition mode of dithiocarbamates on MβLs was identified by generating Lineweaver–Burk plots, and Ki values were gained by fitting the initial velocity versus substrate concentration at each inhibitor concentration, using SigmaPlot 12.0.
# L1 [6] = biological target: T2, L1; test: Inhibition kinetics, Lineweaver–Burk plots
# Protocol: as §8, §9
# T1 sequence (C7C422 29-270 limits assumed): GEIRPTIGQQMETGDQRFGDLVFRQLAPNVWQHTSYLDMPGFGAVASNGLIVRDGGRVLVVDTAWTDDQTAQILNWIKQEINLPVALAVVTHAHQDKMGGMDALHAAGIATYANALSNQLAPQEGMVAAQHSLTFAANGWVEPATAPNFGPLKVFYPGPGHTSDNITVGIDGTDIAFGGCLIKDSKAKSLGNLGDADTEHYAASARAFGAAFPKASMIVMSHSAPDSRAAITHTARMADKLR
structure (smiles),measurement,setting,value
O=C(NNC(=S)[S][K])c1ccccc1O [DC1],reversibility of inhibition of NDM-1 by ITC (total heat Q constant),NDM-1 [1],reversible
same,reversibility of inhibition of L1 by ITC (total heat Q constant),L1 [2],reversible
same,"reversibility, recovery of NDM-1 activity after rapid dilution",NDM-1 [3],reversible inhibitor
same,"reversibility, recovery of L1 activity after rapid dilution",L1 [4],reversible inhibitor
same,inhibition mode against NDM-1,NDM-1 [5]; Lineweaver–Burk plots,partially mixed inhibition
same,Ki,"NDM-1 [5]; read-out: Ki against NDM-1, cefazolin 20-120 µM, inhibitor 0-20 μM, SigmaPlot fit",0.29 µM
same,inhibition mode against L1,L1 [6]; Lineweaver–Burk plots,partially mixed inhibition
same,Ki,"L1 [6]; read-out: Ki against L1, cefazolin 20-120 µM, inhibitor 0-20 μM, SigmaPlot fit",5.06 µM
